“Also recorded” adds a separate entry of the source.
Tests used:
Water solubility = type: physicochemical
insulin receptor (IR) = test: Phosphorylation of the insulin receptor in the liver of normal rats; type: in vivo; details: normal rat liver, single injection 200 μg/kg I.P.; comparable to insulin
IRS-1 = test: Phosphorylation of IRS-1 in the liver of normal rats; type: in vivo; details: normal rat liver, single injection 200 μg/kg I.P.; comparable to insulin
[1] = system: PI 3-kinase associated with the insulin receptor; test: PI 3-kinase activity associated with the insulin receptor in the liver of a normal rat; type: in vivo; details: 18 mg/kg I.P., p<0.05
Experimental: (§1) For the determination of the PI 3-kinase activity, the tissues are ground in a buffer containing protease and phosphatase inhibitors as well as a solubilising agent (Triton), as described by Taouis et al., J. Biol. Chem., 269, 14912, 1994. After solubilisation, the supernatants are immunoprecipitated with anti-IRS-1 and the PI 3-kinase activity is measured in the immunoprecipitate. In fact, the reaction is initiated by the addition of an artificial substrate of the enzyme: phosphatidylinositol (PI) and (^33P) gamma ATP. The product of the reaction is subjected to thin layer chromatography (TLC plate) and the levels of phosphorylation of PI are measured by a STORM phospho-imager (Molecular Dynamics). The activity is expressed in arbitrary units given by the apparatus (conversion of the radioactivity to luminescence by means of a laser beam). The PI 3-kinase activities of the PDGF receptor and of the insulin receptor in the presence or the absence of 4-OH-Ile (18 mg/kg I.P.) were compared following the protocol already described.

insulin receptor = test: Bonding of insulin on its receptor in hepatic LMH cell lines; type: binding; details: LMH cells (chicken hepatocarcinoma), competition with insulin
Excerpt: FIG. 4, the bonding of insulin on its receptor in hepatic LMH cell lines, In FIG. 4 the comparative results concerning the bonding of isoleucine and 4-OH-Ile are given. The LMH cells used in these trials are from chicken hepatocarcinoma (Kawaguchi T. et al., Cancer Res., 47, 4460, 1987).

PI 3-kinase [2] = test: PI 3-kinase activity of the liver in type 2 diabetic rats; type: in vivo, rat; details: liver of rats with type 2 diabetes; p<0.05 for 4-OH-Ile
Experimental: (§2) For the determination of the PI 3-kinase activity, the tissues are ground in a buffer containing protease and phosphatase inhibitors as well as a solubilising agent (Triton), as described by Taouis et al., J. Biol. Chem., 269, 14912, 1994. After solubilisation, the supernatants are immunoprecipitated with anti-IRS-1 and the PI 3-kinase activity is measured in the immunoprecipitate. In fact, the reaction is initiated by the addition of an artificial substrate of the enzyme: phosphatidylinositol (PI) and (^33P) gamma ATP. The product of the reaction is subjected to thin layer chromatography (TLC plate) and the levels of phosphorylation of PI are measured by a STORM phospho-imager (Molecular Dynamics). The activity is expressed in arbitrary units given by the apparatus (conversion of the radioactivity to luminescence by means of a laser beam). Comparison of the Effects of Insulin and Those of 4-OH-Ile on the PI 3-Kinase Activity of the Muscle and the Liver Removed from Rats with Type 2 Diabetes (Masiello et al., Diabetes 47, 224, 1998)

PI 3-kinase [3] = test: PI 3-kinase activity of the muscle in type 2 diabetic rats; type: in vivo, rat; details: muscle of rats with type 2 diabetes; p<0.01 for 4-OH-Ile
Experimental: as §2

[4] = Basal insulinemia and glycemia during chronic administration in type 2 diabetic rats; type: in vivo, rat
Experimental: The beneficial effect of 4-hydroxyisoleucine against relative hyperinsulinemia has been researched in vivo during chronic administration (for one month) of plant amino acid (25 mg/kg/day, by intraperitoneal route) on rats made non insulin dependant diabetic (type 2 diabetes) by joint injections of nicotinamide and streptozotocin (Masiello et al., Diabetes, 47, 224, 1998). Regular blood samples are taken from the caudal vein of the rats made it possible to evaluate the level of plasmatic insulin using a radio-immunological method (Herbert et al., J. Clin. Endocr., 25. 1375, 1965), 15 hours after injection of the product which took place at 5.30 pm. In these same samples, the plasmatic glucose level was measured using an enzymatic method (Trinder P., J. Clin. Pathol. 22, 158, 1969).

[5] = system: phosphatase activity associated with IRS-1; test: Phosphatase activity associated with IRS-1 in the liver of a normal rat; type: biochemical; details: 200 μmol/1, p<0.05
Experimental: The phosphatase activity was measured on the immunoprecipitates carried out with the anti-IRS-1 antibody and insulin anti-receptor. The solubilisation protocol is the same as that for PI 3-kinase following the methodology described by Taouis et al. (J. Biol. Chem., 269, 14912, 1994). After immunoprecipitation, the phosphatase activity was measured according to the method described by Chen. et al. (J. Biol. Chem., 272, 8026, 1997). With the aim of better locating the action site of the 4-OH-Ile, its impact on phosphatase activity was studied. The phosphatase activity associated with IRS-1 was measured.

PI 3-kinase [6] = test: PI 3-kinase activity of the liver (anti-IRS-1 immunoprecipitates), normal rats; type: in vivo, rat; details: normal Wistar rats, i.p., insulin 100 U/kg, 4-OH-Ile 18 mg/kg, 15 min after injection; p<0.05
Experimental: (§3) The PI 3-kinase activity was measured on immunoprecipitates carried out with the anti-IRS-1 antibody. This made it possible to determine the enzymatic activity associated with the action of insulin and to compare it to the action induced by 4-OH-Ile. Normal male Wistar rats (IFFA CREDO strain, France) received, via intraperitoneal injection, either ordinary insulin on its own (100 U/kg) or 4-OH-Ile on its own (18 mg/kg), or insulin combined with 4-OH-Ile in the same doses. The control rats received sodium chloride at 9‰ via intraperitoneal route. Fifteen minutes after the injection, the animals were sacrificed and the peripheral tissues (liver, muscle) were immediately removed and frozen in liquid nitrogen. […] After solubilisation, the supernatants are immunoprecipitated with anti-IRS-1 and the PI 3-kinase activity is measured in the immunoprecipitate. […] The product of the reaction is subjected to thin layer chromatography (TLC plate) and the levels of phosphorylation of PI are measured by a STORM phospho-imager (Molecular Dynamics). The activity is expressed in arbitrary units given by the apparatus (conversion of the radioactivity to luminescence by means of a laser beam).

PI 3-kinase [7] = test: Basal PI 3-kinase activity of the liver of obese Zucker rats (fa/fa) after chronic administration; type: in vivo, rat; details: 50 mg/kg i.p. for 4 weeks, sacrificed 17 hours after last administration
Experimental: as §1, with “beam). During chronic administration for 4 weeks of 4-OH-Ile (50 mg/kg by intraperitoneal route) in obese Zucker rats (fa/fa), the” for “beam). The”, “3-kinase activity” for “3-kinase activities”, “the liver was measured at the end” for “the PDGF receptor and”, “the treatment.” for “the insulin receptor in the presence or the absence of 4-OH-Ile (18 mg/kg I.P.) were compared following the protocol already described.”

PI 3-kinase [8] = test: PI 3-kinase activity of muscle (anti-IRS-1 immunoprecipitates), normal rats; type: in vivo, rat; details: normal Wistar rats, i.p., insulin 100 U/kg, 4-OH-Ile 18 mg/kg, 15 min after injection
Experimental: as §3

solubility in water (Water solubility) | activation (phosphorylation) of the insulin receptor (IR) (insulin receptor (IR)) | PI 3-kinase activity associated with the insulin receptor [1] | phosphatase activity associated with IRS-1 [5] | basal activity of PI 3-kinase of the liver (PI 3-kinase [7]) | Compound | activation (phosphorylation) of IRS-1 (IRS-1) | bonding to the insulin membrane receptor of the hepatocyte (insulin receptor) | hepatic PI 3-kinase activity (PI 3-kinase [2]) | muscular PI 3-kinase activity (PI 3-kinase [3]) | insulinemia (plasmatic insulin) ([4]; type 2 diabetic rats (nicotinamide/streptozotocin), 25 mg/kg/day i.p. for one month, 15 hours after injection) | glycemia ([4]; type 2 diabetic rats, 25 mg/kg/day i.p., at the end of the treatment) | plasmatic insulin after cessation of the treatment ([4]; type 2 diabetic rats, after cessation of 25 mg/kg/day i.p. treatment) | hepatic PI 3-kinase activity (PI 3-kinase [6]) | PI 3-kinase activity of muscle (PI 3-kinase [8])
hydrosoluble | induces the activation | the only one increased | significantly inhibits | is increased | CC(O)C(C)C(N)C(=O)O (stereo not drawn) [4-OH-Ile, 4-hydroxyisoleucine] | induces the activation | has no bond with this receptor; also recorded: does not recognise the insulin receptor | the same effect as insulin with the same intensity; also recorded: significantly stimulates | the same effect as insulin with the same intensity; also recorded: significantly stimulates | significantly lowering | slight reduction | again rises to regain values close to those observed before the treatment | significantly stimulate | has a comparable effect
 |  |  |  |  | insulin [reference compound] |  |  | activates | activates |  |  |  | significantly stimulate | clearly stimulates

From US7402611B1, “Use of amino acids for making medicines for treating to insulin-resistance” (Innodia Inc., priority 1999, dated 2008)
